“Also recorded” adds a separate entry of the source.
Assays:
tps1Δ cells = assay: Glu6P and Fru1,6bisP levels after glucose addition to tps1Δ cells; type: cell-based, S. cerevisiae
Procedure: For measuring metabolite levels, cells were typically grown in Complete Synthetic medium. […] However, when comparing the effect of Warbicins on metabolite profiles of wild type and tps1Δ strains (FIG. 2f-k), cells were grown on 2% galactose. When grown to exponential phase, cells were harvested by centrifugation and washed twice with ice-cold 25 mM 2-(N-Morpholino)ethanesulfonic acid (MES) buffer, pH 6. Cells were suspended in Complete Synthetic medium without sugar at a concentration of 75 mg (wet weight)/mL followed by a temperature equilibration at 30° C. in a shaking water bath for 30 min. Depending on the experiment, a final concentration of 2.5 mM, 7.5 mM or 10 mM glucose was added to the cell suspension. Compounds were added 10 min prior to glucose addition. […]
Through endpoint measurement of the absorbance of NADH or NADPH at 340 nm, metabolite concentrations were calculated by applying Lambert's Law. Different metabolites were measured through the use of coupled enzymatic reactions. […] Depending on the measured metabolite, different co-factors and auxiliary enzymes were added. For measuring glucose-6-phosphate, 0.8 mg/ml NADP^+ was added to the assay buffer after which the baseline absorbance was measured. […] After stabilization of the OD340 spectra, ATP concentrations were measured by additionally adding 10 mM MgCl2 and 0.5 mM glucose to the assay buffer. […]

[1] = Warbicin toxicity and tolerability in mice; type: in vivo, NMRI-nu mice
Procedure: Warbicin in vivo toxicity and tolerability was examined by subjecting NMRI-nu mice to daily intraperitoneal injection of either WBC-A, WBC-15C, WBC-4C or WBC-11C. Compounds were dosed at either 5 mg/kg, 10 mg/kg or 20 mg/kg over a period of 20 days. Three mice were used per condition. To evaluate toxicity, change in body weight was registered daily. As a humane endpoint, mice that lost more than 20% of their original body weight were prematurely sacrificed. An optimal dissolve strategy was developed to administer WBC compounds by intraperitoneal injection. Due to their considerable hydrophobicity, compounds were dissolved in a sterilized 1×PBS, 5% DMSO and 5% Tween-80 solution. For WBC-A, -15C and -4C, this gives an initial clear solution that gradually changes over time into a homogenous suspension which can still be administered in a reproducible way. For WBC-11C it immediately results in a homogenous suspension.

**Q.** For Cc1nc(Sc2nnc3n2CCCCC3)c2c(-c3cccs3)csc2n1 [WBC-A], which “Glu6P and Fru1,6bisP hyperaccumulation after addition of 2.5 mM glucose” value (tps1Δ cells) is on record?
**A.** concentration-dependent gradual drop in Glu6P and a more precipitous drop in Fru1,6bisP

**Q.** What about the “Other abnormalities at autopsy” value ([1]; daily i.p. 5, 10, 20 mg/kg, 20 days) of the same compound?
**A.** No other abnormalities

**Q.** And the “Loss in body weight over 20 days” value ([1]; daily i.p. 5, 10 and 20 mg/kg, nude mice)?
**A.** no significant loss in body weight; also recorded: No significant difference

**Q.** What about the “AST/ALT ratio vs vehicle” value ([1]; sera after 20 days, 5, 10, 20 mg/kg i.p.) of the same compound?
**A.** No significant difference

**Q.** And the “Blood glucose level vs vehicle” value ([1]; sera post mortem after 20 days, 5, 10, 20 mg/kg i.p.)?
**A.** No significant difference

From patent publication US20240252508A1, “Novel glucose uptake inhibitors for use in the treatment of cancer” (NOVELYEAST BV, priority 2021, published 2024)
